Our source for the TGI values is PubChem BioAssay (NCI).

Among the test systems are SF-539 CNS; MALME-3M melanoma; SNB-75 CNS; NCI-H522 lung; MOLT-4 leukemia; A549 NSCLC; UACC-62 melanoma; HCC-2998 colon; K-562 leukemia; HL-60(TB) leukemia.
Assay in all cases: NCI anticancer screen, dose series, 48 h

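Protocol summary: plate cells (96-well), add compound at 5 concentrations, incubate 48 h, interpolate endpoints linearly. At the TGI there is no net growth.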

With `CC(=O)OCC1OC(n2c3c(c(-c4ccco4)c(C#N)c2=S)CCCC3)C(OC(C)=O)C(OC(C)=O)C1OC(C)=O` (stereo not drawn), the TGI was greater than 31.6 µM in the assay with SF-539 CNS; greater than 31.6 µM in the assay on MALME-3M melanoma; 24.6 µM in the assay on SNB-75 CNS; greater than 31.6 µM in the assay on NCI-H522 lung; greater than 31.6 µM in the assay with MOLT-4 leukemia; greater than 31.6 µM with A549 NSCLC.

Turning to `COc1cc2c(cc1OC)C1Cc3ccccc3CN1CCC2` (stereo not drawn), the TGI with SF-539 CNS, in the assay with MALME-3M melanoma, with SNB-75 CNS, in the assay on UACC-62 melanoma, in the assay with NCI-H522 lung and in the assay with MOLT-4 leukemia was greater than 100 µM each time. Besides, the TGI in the assay on HCC-2998 colon, in the assay on K-562 leukemia and in the assay with A549 NSCLC was greater than 100 µM throughout.

`Cc1c(-c2coc(-c3ccc(Cl)cc3)n2)c(=O)n(-c2ccccc2)n1C`: the TGI with SF-539 CNS, with MALME-3M melanoma, in the assay with HL-60(TB) leukemia, with SNB-75 CNS, in the assay with UACC-62 melanoma and in the assay on NCI-H522 lung was greater than 100 µM throughout. For the same molecule, the TGI in the assay on MOLT-4 leukemia, in the assay with HCC-2998 colon and in the assay with A549 NSCLC was greater than 100 µM throughout.

With `CNC(=O)OCC1=C(COC(=O)NC)CN(c2ccccc2)C1`, the TGI in the assay on SF-539 CNS, with MALME-3M melanoma, in the assay with SNB-75 CNS, in the assay with UACC-62 melanoma, in the assay with MOLT-4 leukemia and with HCC-2998 colon was greater than 100 µM in each case. Besides, the TGI in the assay with K-562 leukemia and with A549 NSCLC was greater than 100 µM in each case.

For the molecule `C=C(CCC(C(=O)O)C1CCC2(C)C3=C(CCC12C)C1(C)CCC(O)C(C)(C)C1CC3)C(C)C` (stereo not drawn), the TGI in the assay on SF-539 CNS is greater than 100 µM; in the assay with SNB-75 CNS, greater than 100 µM; in the assay with UACC-62 melanoma, greater than 100 µM; in the assay with NCI-H522 lung, 50.3 µM; with MOLT-4 leukemia, greater than 100 µM; in the assay on HCC-2998 colon it was greater than 100 µM. The TGI in the assay with K-562 leukemia is 43.3 µM; in the assay with A549 NSCLC, greater than 100 µM.

On to `COC(=O)c1ccc(OCc2ccc3nc(-c4ccccc4)c(Cl)nc3c2)cc1`, for which the TGI was greater than 100 µM in the assay on SF-539 CNS; greater than 100 µM in the assay on HL-60(TB) leukemia; 55.4 µM in the assay with SNB-75 CNS; greater than 100 µM in the assay with UACC-62 melanoma; 45.7 µM in the assay on NCI-H522 lung; greater than 100 µM with MOLT-4 leukemia. Further, the TGI with HCC-2998 colon and in the assay with A549 NSCLC was greater than 100 µM each time.

`CSC1(SC)CCCCCCCCCCC1`: the TGI with SF-539 CNS is greater than 100 µM; in the assay on MALME-3M melanoma, 70.9 µM; with HL-60(TB) leukemia, greater than 100 µM; in the assay with UACC-62 melanoma, greater than 100 µM; in the assay with NCI-H522 lung, 34.9 µM; in the assay with MOLT-4 leukemia it was greater than 100 µM. Further, the results for the TGI with HCC-2998 colon, in the assay on K-562 leukemia and in the assay on A549 NSCLC were 40.5 µM, greater than 100 µM and greater than 100 µM, respectively.

Regarding `CCCCCCCC(CC(=O)O)OC(=O)CC(CCCCCCC)OC1OC(C)C(O)C(O)C1OC1OC(C)C(O)C(O)C1O` (stereo not drawn), the TGI in the assay with SF-539 CNS, with MALME-3M melanoma, with SNB-75 CNS, with UACC-62 melanoma, in the assay with NCI-H522 lung and in the assay with MOLT-4 leukemia was greater than 100 µM each time. Further, the TGI in the assay on HCC-2998 colon, in the assay on K-562 leukemia and with A549 NSCLC was greater than 100 µM in each case.

Consider `O=C1O/C(=C\c2ccc(O)cc2)C(c2ccc(O)c(Cl)c2)=C1Br`, for which the TGI came to 29.1 µM in the assay on SF-539 CNS; 29.5 µM with MALME-3M melanoma; 51.2 µM with HL-60(TB) leukemia; 28.9 µM in the assay with UACC-62 melanoma; 20.5 µM in the assay on NCI-H522 lung; 49 µM in the assay on MOLT-4 leukemia. The TGI in the assay with HCC-2998 colon worked out at 23.6 µM; in the assay on K-562 leukemia, 10.5 µM.

In the case of `N#Cc1nnc2c3c(-c4ccc(Cl)cc4)c(C#N)c(=O)[nH]c3nn2c1N`, the TGI in the assay with SF-539 CNS is 12.5 µM; in the assay on MALME-3M melanoma, 31.6 µM; in the assay on HL-60(TB) leukemia, greater than 100 µM; with UACC-62 melanoma it was 4.44 µM; with NCI-H522 lung, 6.11 µM; in the assay with MOLT-4 leukemia, 14.1 µM. Further, the TGI in the assay on HCC-2998 colon is 12.7 µM; in the assay on K-562 leukemia it was greater than 41.6 µM; in the assay with A549 NSCLC, greater than 59.9 µM.

As to `Cc1cnc2[nH]c(-c3ccccc3)cc(=O)c2c1`, the TGI with SF-539 CNS is 0.0671 µM; in the assay on MALME-3M melanoma it was greater than 100 µM; with HL-60(TB) leukemia it was 0.226 µM; with SNB-75 CNS, 82.8 µM; in the assay on NCI-H522 lung, 0.526 µM; with MOLT-4 leukemia it was greater than 14.4 µM. The TGI in the assay with HCC-2998 colon is 1.96 µM; with A549 NSCLC, greater than 100 µM.

With `Cc1ccc(Nc2nnc3n2S(=O)(=O)c2cc(C)c(Cl)cc2S3)cc1`, the TGI in the assay with SF-539 CNS came out at 14.7 µM; in the assay on HL-60(TB) leukemia it was 9.33 µM; in the assay on SNB-75 CNS it was 73.4 µM; with NCI-H522 lung, 5.66 µM; in the assay on MOLT-4 leukemia, 32.7 µM; in the assay with HCC-2998 colon, 55.8 µM. Further, the TGI with K-562 leukemia amounted to 23.8 µM; in the assay with A549 NSCLC it was 61.6 µM.

As to `BrCC[P+](c1ccccc1)(c1ccccc1)c1ccccc1`, the TGI is 35.3 µM in the assay on SF-539 CNS; 5.33 µM in the assay with HL-60(TB) leukemia; 9.86 µM in the assay on SNB-75 CNS; 21.9 µM in the assay on UACC-62 melanoma; 24.3 µM in the assay with MOLT-4 leukemia; 27.2 µM in the assay with HCC-2998 colon. Besides, the TGI was 30.9 µM in the assay on K-562 leukemia and greater than 100 µM in the assay with A549 NSCLC.

In the case of `C=CC1(CCC(Br)C(C)(C)Cl)CO1` (stereo not drawn), the TGI in the assay with SF-539 CNS, with MALME-3M melanoma, with SNB-75 CNS, in the assay with NCI-H522 lung, in the assay with MOLT-4 leukemia and in the assay on HCC-2998 colon was greater than 10 µM in each case. Moreover, the TGI with K-562 leukemia and in the assay with A549 NSCLC was greater than 10 µM throughout.

With `COc1ccccc1OC/C(N=Cc1ccncc1)=N/NC(=O)c1ccncc1`, the TGI with SF-539 CNS, in the assay on MALME-3M melanoma, with HL-60(TB) leukemia, in the assay on UACC-62 melanoma, in the assay on NCI-H522 lung and in the assay on MOLT-4 leukemia was greater than 100 µM each time. Besides, the TGI in the assay with HCC-2998 colon, with K-562 leukemia and in the assay on A549 NSCLC was greater than 100 µM throughout.

Take `C=C1C(=O)O[C@H]2C(=O)[C@H](C)CCC[C@@](C)(O)/C=C\C[C@@]3(C)O[C@@H]3C[C@@H]12`: the TGI in the assay with SF-539 CNS turned out to be 36.9 µM; with UACC-62 melanoma it was 37.8 µM; with NCI-H522 lung, 9.08 µM; in the assay with A549 NSCLC, 38.6 µM.
